Common to all, as to type: biochemical
The test system of one test is A. seminis. Conditions: strain ATCC 15768; β-naphthylamine liberated after 60 minutes, 37° C. A digest of the protocol: (§1)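 Aminopeptidase values express the nanomoles of β-naphthylamine freed from N-CBz-glycyl-glycyl-L-arginine-β-naphthylamide during a 60-minute, 37° C incubation. The liberated amine was coupled with stabilized diazonium salt Fast Garnet GBC and measured at 525 nm against an enzyme-free blank.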

The test system of a further test is Campylobacter sputorum. Conditions: strain Ba1-21; β-naphthylamine liberated after 60 minutes, 37° C. A digest of the protocol: as §1
A further test has as its system Eikenella corrodens. Particulars: strain BP1-6; β-naphthylamine liberated after 60 minutes, 37° C. A digest of the protocol:
as §1

A further test deals with Fusobacterium nucleatum. Conditions: β-naphthylamine liberated after 60 minutes, 37° C. A digest of the protocol:
as §1

The next test concerns V. parvula. Conditions: strain ATCC 10790; β-naphthylamine liberated after 60 minutes, 37° C. The gist of the method: as §1
The next test concerns Veillonella alcalesens. The test is described as follows: Aminopeptidase activity on β-naphthylamide substrates. Particulars: strain ATCC 11748; β-naphthylamine liberated after 60 minutes, 37° C. The gist of the method: as §1

Read-outs that look alike come from different tables or passages of the source. Peptide text beside a SMILES is read from it. * marks the point of attachment. βNA = c1ccc2cc(N*)ccc2c1

This passage reports Aminopeptidase activity results from US4994376A, “Detection of bacteroides gingivalis” (priority 1987, dated 1991).

For the compound `Cl.N=C(N)NCCC[C@H](NC(=O)CNC(=O)CNC(=O)OCc1ccccc1)C(=O)Nc1ccc2ccccc2c1` [N-CBz-Gly-Gly-Arg, N-carbobenzoxy-glycyl-glycyl-L-arginine-β-naphthylamide hydrochloride], the Aminopeptidase activity in the test with A. seminis came out at 1 nmol; with Campylobacter sputorum, 0 nmol; in the test with Eikenella corrodens, 0 nmol; in the test on Fusobacterium nucleatum (strain 2), 3 nmol; in the test with Fusobacterium nucleatum (strain ATCC 25586), 0 nmol; in the test on Fusobacterium nucleatum (strain D31A-24) it was 2 nmol. The Aminopeptidase activity in the test with V. parvula and in the test on Veillonella alcalesens was 0 nmol each time.

Take `C[C@H](N)C(=O)N[C@@H](C)C(=O)N[C@@H](Cc1ccccc1)C(=O)Nc1ccc2ccccc2c1` [Ala-Ala-Phe] (H-Ala-Ala-Phe-βNA): the Aminopeptidase activity was determined as 0 nmol with A. seminis; 0 nmol with Campylobacter sputorum; 0 nmol in the test on Eikenella corrodens; 2 nmol in the test with Fusobacterium nucleatum (strain 2); 3 nmol with Fusobacterium nucleatum (strain ATCC 25586); 0 nmol with Fusobacterium nucleatum (strain D31A-24). Also, the Aminopeptidase activity with V. parvula is 0 nmol; in the test on Veillonella alcalesens, 1 nmol.

`CC(C)C[C@H](N)C(=O)NCC(=O)O` [Leu-Gly, Leucyl-glycine] (H-Leu-Gly-OH): the Aminopeptidase activity was 0 nmol in the test with A. seminis; 0 nmol with Campylobacter sputorum; 0 nmol in the test on Eikenella corrodens; 2 nmol with Fusobacterium nucleatum (strain 2); 0 nmol in the test with Fusobacterium nucleatum (strain ATCC 25586); 0 nmol in the test on Fusobacterium nucleatum (strain D31A-24). In addition, the Aminopeptidase activity in the test with V. parvula was 0 nmol.

`CC(C)C[C@H](NC(=O)[C@@H]1CCCN1C(=O)CN)C(=O)Nc1ccc2ccccc2c1` [Gly-Pro-Leu] (H-Gly-Pro-Leu-βNA): the Aminopeptidase activity is 0 nmol in the test on A. seminis; 2 nmol in the test with Campylobacter sputorum; 0 nmol with Eikenella corrodens; 0 nmol in the test on Fusobacterium nucleatum (strain 2); 2 nmol in the test on Fusobacterium nucleatum (strain ATCC 25586); 2 nmol in the test on Fusobacterium nucleatum (strain D31A-24). The Aminopeptidase activity in the test with V. parvula and in the test on Veillonella alcalesens was 0 nmol each time.

Consider `NC(=O)[C@@H](N)CCC(=O)O` [α-Glu, α -glutamine], for which the Aminopeptidase activity in the test with A. seminis was 0 nmol; with Campylobacter sputorum, 1 nmol; in the test on Eikenella corrodens, 0 nmol; in the test with Fusobacterium nucleatum (strain 2), 0 nmol; in the test on Fusobacterium nucleatum (strain ATCC 25586), 0 nmol; with Fusobacterium nucleatum (strain D31A-24), 1 nmol. The Aminopeptidase activity in the test on V. parvula and in the test with Veillonella alcalesens was 0 nmol in each case.

Consider `CSCCC(N)C(=O)Nc1ccc2ccccc2c1` (racemic), for which the Aminopeptidase activity in the test with A. seminis came out at 0 nmol; with Campylobacter sputorum it was 0 nmol; with Eikenella corrodens, 3 nmol; in the test with Fusobacterium nucleatum (strain 2), 1 nmol; with Fusobacterium nucleatum (strain ATCC 25586) it was 0 nmol; in the test with Fusobacterium nucleatum (strain D31A-24), 0 nmol. Further, the Aminopeptidase activity with V. parvula and in the test on Veillonella alcalesens was 0 nmol in each case.
